Assay results as given in US20210355104A1, “ADENOSINE RECEPTOR BINDING COMPOUNDS” (Nikang Therapeuticsm Inc., priority 2018, published 2021).
pIC50: −log10 of the molar value. Values joined by “and” are separate entries in the source; they are usually repeats but may differ in a detail not shown here. Equal entries are not always repeated.

Key:
Adenosine A2A receptor [1] = target: T1, Adenosine A2A receptor (Homo sapiens, UniProt P29274); test: cAMP assay in 293A cells stably expressing the adenosine A2A receptor (CGS21680 stimulation, HTRF); format: cell-based; design: expressed in transfected cells; host or cells: 293A cells (Invitrogen, Cat# R705-07) infected with A2A-expressing lentivirus (custom packaged by Biosettia), puromycin selected; details: 293A-A2AR cells, 0.1% BSA, values separated by / are repeat determinations
T1 sequence (P29274 whole entry): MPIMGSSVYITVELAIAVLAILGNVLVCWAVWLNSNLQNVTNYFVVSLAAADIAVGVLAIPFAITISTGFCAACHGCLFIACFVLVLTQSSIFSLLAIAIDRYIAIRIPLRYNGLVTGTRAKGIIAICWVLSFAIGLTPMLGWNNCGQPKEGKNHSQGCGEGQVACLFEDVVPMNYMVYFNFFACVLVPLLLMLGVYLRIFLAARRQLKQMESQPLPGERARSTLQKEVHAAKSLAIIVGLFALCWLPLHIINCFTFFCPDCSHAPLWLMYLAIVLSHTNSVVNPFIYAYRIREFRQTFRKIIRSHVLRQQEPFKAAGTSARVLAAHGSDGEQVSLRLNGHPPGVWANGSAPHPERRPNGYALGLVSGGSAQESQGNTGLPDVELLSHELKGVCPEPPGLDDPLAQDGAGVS

Adenosine A2A receptor [2] = target: T1, Adenosine A2A receptor; test: Adenosine A2A receptor competitive binding assay (Tag-lite HTRF); details: Tag-lite adenosine A2A receptor ligand binding, 2 h room temperature; values separated by / are repeat determinations
Protocol: Adenosine A2A Receptor Competitive Binding Assay
The Tag-lite adenosine A2A receptor ligand binding assay is a homogeneous alternative to radioligand binding assay and developed by Cisbio (Bedford, Mass.). We carried out this assay following Cisbio's instructions with minor modification. Pre-transfected, fluorescent donor-labelled cells (Cisbio Cat#: C1TT1A2A, 200 testes) was stored at −80° C. and thawed right before use. Cells were washed once with 5 ml TLB and gently resuspended in 2 ml TLB. 4 μl suspended cells was dispensed into each well of white low-volume 384-well plate (Greiner Bio-One). Serial dilutions of compounds were prepared in Tag-lite buffer (TLB, Cisbio Cat #: LABMED) to a DMSO concentration of 0.6%. After adding 4 μl of compound dilutions to each well, 4 μl60 nM Adenosine A2A receptor red antagonist fluorescent ligand (Cisbio Cat #: L0058RED) was dispensed to each well. The 384-well assay plate was centrifuged briefly and incubated at room temperature for 2 h. HTRF signals were measured using CIARIOstar plate reader (BMG Labtech).

[3] = 8 nM CGS, read-out: cAMP (nM) 0.1% BSA, 8 nM CGS
[4] = 1 uM CGS, read-out: cAMP (nM) 0.1% BSA, 1 uM CGS

IC50 (Adenosine A2A receptor [1]; [3])	pIC50 (Adenosine A2A receptor [2])	IC50 (Adenosine A2A receptor [1]; [4])	Compound
6.5 nM	8.83	–	CCN(CC)C(=O)COc1nc(N)nc(-c2ccccc2)c1-c1cc(C)nc(C(C)(F)F)c1 [Example 16, 2-((2-amino-5-(2-(1,1-difluoroethyl)-6-methylpyridin-4-yl)-6-phenylpyrimidin-4-yl)oxy)-N,N-diethylacetamide]
7.5 nM	8.05	–	CCN(CC)C(=O)COc1nc(N)nc(-c2ccccc2)c1-c1cc(C)nc(C(F)(F)CC)c1 [Example 17, 2-((2-amino-5-(2-(1,1-difluoropropyl)-6-methylpyridin-4-yl)-6-phenylpyrimidin-4-yl)oxy)-N,N-diethylacetamide]
0.44 nM and 1.3 nM	8.12	–	CCN(CC)C(=O)COc1nc(N)nc(-c2ccc(F)cc2)c1-c1cc(C)nc(C(F)F)c1 [Example 28, 2-([2-amino-5-[2-(difluoromethyl)-6-methylpyridin-4-yl]-6-(4-fluorophenyl)pyrimidin-4-yl]oxy)-N,N-diethylacetamide]
2 nM and 2.7 nM	8.11	–	CCNC(=O)COc1nc(N)nc(-c2ccccc2)c1-c1cc(C)nc(C(F)(F)F)c1 [Example 29, 2-([2-amino-5-[2-methyl-6-(trifluoromethyl)pyridin-4-yl]-6-phenylpyrimidin-4-yl]oxy)-N-ethylacetamide]
6.1 nM and 6.7 nM	7.86	–	CNC(=O)COc1nc(N)nc(-c2ccc(F)cc2)c1-c1cc(C)nc(C(F)F)c1 [Example 32, 2-((2-amino-5-(2-(difluoromethyl)-6-methylpyridin-4-yl)-6-(4-fluorophenyl)pyrimidin-4-yl)oxy)-N-methylacetamide]
0.42 nM and 0.57 nM and 2.2 nM	8.14 and 8.19	–	CCNC(=O)COc1nc(N)nc(-c2ccc(F)cc2)c1-c1cc(C)nc(C(F)F)c1 [Example 39, 2-((2-amino-5-(2-(difluoromethyl)-6-methylpyridin-4-yl)-6-(4-fluorophenyl)pyrimidin-4-yl)oxy)-N-ethylacetamide]
4.1 nM	8.17	–	Cc1cc(-c2c(OCC(=O)NC(C)C)nc(N)nc2-c2ccc(F)cc2)cc(C(F)F)n1 [Example 41, 2-((2-amino-5-(2-(difluoromethyl)-6-methylpyridin-4-yl)-6-(4-fluorophenyl)pyrimidin-4-yl)oxy)-N-isopropylacetamide]
66 nM and 8.9 nM	7.59	–	COCCNC(=O)COc1nc(N)nc(-c2ccc(F)cc2)c1-c1cc(C)nc(C(F)F)c1 [Example 45, 2-((2-amino-5-(2-(difluoromethyl)-6-methylpyridin-4-yl)-6-(4-fluorophenyl)pyrimidin-4-yl)oxy)-N-(2-methoxyethyl)acetamide]
0.45 nM and 0.84 nM and 2.1 nM	8.24 and 8.23	1780 nM and 714 nM	Cc1cc(-c2c(OCCCS(C)(=O)=O)nc(N)nc2-c2ccc(F)cc2)cc(C(F)F)n1 [Example 46, 5-(2-(difluoromethyl)-6-methylpyridin-4-yl)-4-(4-fluorophenyl)-6-(3-(methylsulfonyl)propoxy)pyrimidin-2-amine]
0.72 nM and 0.18 nM	8.43	–	COCCOc1nc(N)nc(-c2ccc(F)cc2)c1-c1cc(C)nc(C(F)F)c1 [Example 48, 5-(2-(difluoromethyl)-6-methylpyridin-4-yl)-4-(4-fluorophenyl)-6-(2-methoxyethoxy)pyrimidin-2-amine]
3.9 nM	8.00	–	COC(=O)N1CCN(CCOc2nc(N)nc(-c3ccc(F)cc3)c2-c2cc(C)nc(C(F)F)c2)CC1 [Example 51, methyl 4-(2-((2-amino-5-(2-(difluoromethyl)-6-methylpyridin-4-yl)-6-(4-fluorophenyl)pyrimidin-4-yl)oxy)ethyl)piperazine-1-carboxylate]
532 nM	6.92	–	Cc1cc(-c2c(OCCN3CCN(C4COC4)CC3)nc(N)nc2-c2ccc(F)cc2)cc(C(F)F)n1 [Example 52, 5-(2-(difluoromethyl)-6-methylpyridin-4-yl)-4-(4-fluorophenyl)-6-(2-(4-(oxetan-3-yl)piperazin-1-yl)ethoxy)pyrimidin-2-amine]
0.67 nM	7.89	–	COCCOc1ccc(N2CCN(CCOc3nc(N)nc(-c4ccc(F)cc4)c3-c3cc(C)nc(C(F)F)c3)CC2)cc1 [Example 53, 5-(2-Difluoromethyl-6-methyl-pyridin-4-yl)-4-(4-fluoro-phenyl)-6-(2-{4-[4-(2-methoxy-ethoxy)-phenyl]-piperazin-1-yl}-ethoxy)-pyrimidin-2-ylamine]
0.22 nM and 1.45 nM	8.68 and 8.00	–	CCOC(=O)NCCOc1nc(N)nc(-c2ccc(F)cc2)c1-c1cc(C)nc(C(F)F)c1 [Example 54, ethyl(2-((2-amino-5-(2-(difluoromethyl)-6-methylpyridin-4-yl)-6-(4-fluorophenyl)pyrimidin-4-yl)oxy)ethyl)carbamate]
3.6 nM	8.05	–	Cc1cc(-c2c(OCCN3CCN(c4ccc(S(C)(=O)=O)cc4)CC3)nc(N)nc2-c2ccc(F)cc2)cc(C(F)F)n1 [Example 56, 5-(2-(difluoromethyl)-6-methylpyridin-4-yl)-4-(4-fluorophenyl)-6-(2-(4-(4-(methylsulfonyl)phenyl)piperazin-1-yl)ethoxy)pyrimidin-2-amine]
1.7 nM	8.70 and 7.85	–	Cc1cc(-c2c(OCCc3ccc(N4CCN(C)CC4)cc3)nc(N)nc2-c2ccc(F)cc2)cc(C(F)F)n1 [Example 57, 5-(2-(difluoromethyl)-6-methylpyridin-4-yl)-4-(4-fluorophenyl)-6-(4-(4-methylpiperazin-1-yl)phenethoxy)pyrimidin-2-amine]
2.2 nM and 1.3 nM	8.74 and 8.11	663 nM and 394 nM	Cc1cc(-c2c(OCCNS(N)(=O)=O)nc(N)nc2-c2ccc(F)cc2)cc(C(F)F)n1 [Example 59]
1.7 nM and 2.2 nM	8.44 and 8.06	–	CCNC(=O)NCCOc1nc(N)nc(-c2ccc(F)cc2)c1-c1cc(C)nc(C(F)F)c1 [Example 60, 1-(2-((2-amino-5-(2-(difluoromethyl)-6-methylpyridin-4-yl)-6-(4-fluorophenyl)pyrimidin-4-yl)oxy)ethyl)-3-ethylurea]
233 nM	6.55	–	Cc1cc(-c2c(OCC(C)(C)C(=O)O)nc(N)nc2-c2ccc(F)cc2)cc(C(F)F)n1 [Example 61, 3-((2-amino-5-(2-(difluoromethyl)-6-methylpyridin-4-yl)-6-(4-fluorophenyl)pyrimidin-4-yl)oxy)-2,2-dimethylpropanoic acid]
15 nM	7.82	–	Cc1cc(-c2c(OCC(C)(C)O)nc(N)nc2-c2ccc(F)cc2)cc(C(F)F)n1 [Example 62, 1-((2-amino-5-(2-(difluoromethyl)-6-methylpyridin-4-yl)-6-(4-fluorophenyl)pyrimidin-4-yl)oxy)-2-methylpropan-2-ol]
8.3 nM	7.43	–	CCOC(=O)NCc1nc(N)nc(-c2ccccc2)c1-c1cc(C)nc(C(F)(F)F)c1 [Example 63, Ethyl((2-amino-5-(2-methyl-6-(trifluoromethyl)pyridin-4-yl)-6-phenylpyrimidin-4-yl)methyl)carbamate]
1.6 nM	7.38	1010 nM	CCNCCOc1nc(N)nc(-c2ccc(F)cc2)c1-c1cc(C)nc(C(F)F)c1 [Example 65, 5-(2-(difluoromethyl)-6-methylpyridin-4-yl)-4-(2-(ethylamino)ethoxy)-6-(4-fluorophenyl)pyrimidin-2-amine]
337 nM	7.02	–	Cc1cc(-c2c(OCCc3ccc(OC4CCN(S(C)(=O)=O)C4)cc3)nc(N)nc2-c2ccc(F)cc2)cc(C(F)F)n1 (stereo not shown) [Example 66, 5-(2-(difluoromethyl)-6-methylpyridin-4-yl)-4-(4-fluorophenyl)-6-(4-((1-(methylsulfonyl)pyrrolidin-3-yl)oxy)phenethoxy)pyrimidin-2-amine]
4.7 nM	7.57	–	CCNC(=O)Nc1ccc(CCOc2nc(N)nc(-c3ccc(F)cc3)c2-c2cc(C)nc(C(F)F)c2)cc1 [Example 67, 1-(4-(2-((2-amino-5-(2-(difluoromethyl)-6-methylpyridin-4-yl)-6-(4-fluorophenyl)pyrimidin-4-yl)oxy)ethyl)phenyl)-3-ethylurea]
2.7 nM	7.66	–	Cc1cc(-c2c(OCCc3ccc(C(C)(C)O)cc3)nc(N)nc2-c2ccc(F)cc2)cc(C(F)F)n1 [Example 68, 2-(4-(2-((2-amino-5-(2-(difluoromethyl)-6-methylpyridin-4-yl)-6-(4-fluorophenyl)pyrimidin-4-yl)oxy)ethyl)phenyl)propan-2-ol]
5.8 nM	7.42	–	Cc1cc(-c2c(OCCc3ccc(NS(C)(=O)=O)cc3)nc(N)nc2-c2ccc(F)cc2)cc(C(F)F)n1 [Example 69, N-(4-(2-((2-amino-5-(2-(difluoromethyl)-6-methylpyridin-4-yl)-6-(4-fluorophenyl)pyrimidin-4-yl)oxy)ethyl)phenyl)methanesulfonamide]
